In PubChem BioAssay (NCI):
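Briefly, cells in 96-well plates were exposed to five compound concentrations for 48 h, and endpoints were estimated by linear interpolation. TGI is the concentration that stops growth completely.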 Where a SMILES comes first, the peptide text is derived from it. The star is where a group is joined. Boc = CC(C)(C)OC(=O)*

Columns and labels:
Assay in all cases: NCI-60 cell line screen, 48 h
[1] = system: ACHN renal
[2] = system: CCRF-CEM leukemia
[3] = system: EKVX NSCLC
[4] = system: HCT-15 colon
[5] = system: HOP-92 NSCLC
[6] = system: HT29 colon
[7] = system: IGROV1 ovarian
[8] = system: LOX IMVI melanoma
[9] = system: M14 melanoma
[10] = system: MDA-MB-231 breast
[11] = system: MDA-N
[12] = system: MOLT-4 leukemia
[13] = system: NCI/ADR-RES ovarian
[14] = system: OVCAR-5 ovarian
[15] = system: OVCAR-8 ovarian
[16] = system: SK-MEL-2 melanoma
[17] = system: UO-31 renal
[18] = system: NCI-H226 lung
[19] = system: MALME-3M melanoma

Cc1cc(S(=O)(=O)Nc2nc3ccccc3[nH]2)c(S)cc1Cl
TGI [1]: > 100 µM | TGI [2]: 80.6 µM | TGI [3]: 99.5 µM | TGI [4]: > 100 µM | TGI [5]: > 100 µM | TGI [6]: > 100 µM | TGI [7]: > 100 µM | TGI [8]: 39.8 µM | TGI [9]: > 100 µM | TGI [10]: > 100 µM | TGI [11]: > 100 µM | TGI [12]: > 100 µM | TGI [13]: > 100 µM | TGI [14]: > 100 µM | TGI [15]: > 100 µM | TGI [16]: > 100 µM | TGI [17]: > 100 µM

CN(C(=O)[C@@H](NC(=O)OC(C)(C)C)c1ccccc1)[C@H]1CCCC[C@@H]1N1CCCC1
TGI [1]: > 100 µM | TGI [3]: > 100 µM | TGI [4]: > 100 µM | TGI [6]: > 100 µM | TGI [7]: > 100 µM | TGI [9]: > 100 µM | TGI [10]: > 100 µM | TGI [12]: > 100 µM | TGI [18]: > 100 µM | TGI [13]: > 100 µM | TGI [14]: > 100 µM | TGI [15]: > 100 µM | TGI [16]: > 100 µM | TGI [17]: > 100 µM

COC(=O)C(Cc1c[nH]c2ccccc12)NC(=O)C(Cc1c[nH]c2ccccc12)NC(=O)C(Cc1c[nH]c2ccccc12)NC(=O)OC(C)(C)C (stereo not drawn) (Boc-Trp-Trp-Trp-OMe; configuration not given here)
TGI [1]: 32.5 µM | TGI [3]: > 100 µM | TGI [4]: 41.4 µM | TGI [5]: 33 µM | TGI [6]: 35.9 µM | TGI [7]: 40.5 µM | TGI [9]: > 100 µM | TGI [19]: > 100 µM | TGI [10]: 93.1 µM | TGI [11]: 40.3 µM | TGI [12]: 39.9 µM | TGI [18]: 37.1 µM | TGI [14]: 32 µM | TGI [15]: 38.8 µM | TGI [16]: 35.8 µM | TGI [17]: > 100 µM

O=C1N(CN2CCOCC2)CN(CN2CCOCC2)C(=O)N1Cc1ccc(-c2ccc(CN3C(=O)N(CN4CCOCC4)CN(CN4CCOCC4)C3=O)cc2)cc1
TGI [1]: 99.3 µM | TGI [3]: 61.5 µM | TGI [4]: > 91.2 µM | TGI [5]: 36.4 µM | TGI [6]: > 100 µM | TGI [7]: 46.4 µM | TGI [8]: 40.6 µM | TGI [9]: 21.3 µM | TGI [19]: 34.6 µM | TGI [10]: > 73.9 µM | TGI [12]: > 100 µM | TGI [18]: > 77.3 µM | TGI [13]: 80.8 µM | TGI [14]: 39.8 µM | TGI [15]: 82.9 µM | TGI [16]: > 51.8 µM | TGI [17]: 40.6 µM

O=S(Nc1ccccc1)c1ccc(-c2ccccc2)cc1 (centres undefined)
TGI [1]: > 100 µM | TGI [2]: > 100 µM | TGI [3]: > 100 µM | TGI [4]: > 100 µM | TGI [6]: > 100 µM | TGI [7]: > 100 µM | TGI [8]: > 100 µM | TGI [19]: > 100 µM | TGI [10]: > 100 µM | TGI [11]: > 100 µM | TGI [12]: > 100 µM | TGI [18]: > 100 µM | TGI [13]: > 100 µM | TGI [14]: > 100 µM | TGI [15]: > 100 µM | TGI [17]: > 100 µM

COCOc1cc(OC)c(Br)cc1C/C(=N/O)C(=O)OC
TGI [1]: > 100 µM | TGI [2]: > 100 µM | TGI [3]: > 100 µM | TGI [4]: > 100 µM | TGI [6]: > 100 µM | TGI [7]: > 100 µM | TGI [8]: > 100 µM | TGI [9]: > 100 µM | TGI [19]: > 100 µM | TGI [10]: > 100 µM | TGI [11]: > 100 µM | TGI [12]: > 100 µM | TGI [18]: > 100 µM | TGI [13]: > 100 µM | TGI [14]: > 100 µM | TGI [15]: > 100 µM | TGI [16]: > 100 µM | TGI [17]: > 100 µM

CCc1cccc(CC)c1Nc1nc2c(s1)C(=O)c1ccccc1C2=O
TGI [1]: 32 µM | TGI [2]: > 100 µM | TGI [3]: 36.1 µM | TGI [4]: 98.1 µM | TGI [5]: 44.7 µM | TGI [7]: 25.7 µM | TGI [8]: 36 µM | TGI [9]: 32.8 µM | TGI [19]: 31.5 µM | TGI [10]: 41.4 µM | TGI [11]: 32.3 µM | TGI [12]: > 100 µM | TGI [14]: 39.7 µM | TGI [16]: 39.8 µM | TGI [17]: 29.2 µM

CC(C)(O)/C=C\P(C)(=O)c1ccccc1 (centres undefined)
TGI [1]: > 100 µM | TGI [3]: > 100 µM | TGI [4]: > 100 µM | TGI [5]: > 100 µM | TGI [6]: > 100 µM | TGI [7]: > 100 µM | TGI [8]: > 100 µM | TGI [9]: > 100 µM | TGI [19]: > 100 µM | TGI [11]: > 100 µM | TGI [18]: > 100 µM | TGI [13]: > 100 µM | TGI [14]: > 100 µM | TGI [15]: > 100 µM | TGI [16]: > 100 µM

CC(=O)OCC1OC(O[C@@H]2C[C@H]3C(C)(C)[C@H](OC(C)=O)CC[C@]3(C)[C@H]3CC[C@]4(C)C(=CC[C@H]4[C@@H](C)C[C@@H](O)[C@H](O)C(C)(C)O)[C@@]32C)C(O)C(O)C1O (some centres undefined)
TGI [1]: 30.4 µM | TGI [2]: 35.1 µM | TGI [3]: 40.2 µM | TGI [4]: 31.4 µM | TGI [5]: 30.9 µM | TGI [6]: 32.5 µM | TGI [7]: 33.8 µM | TGI [8]: 30.2 µM | TGI [9]: 36.5 µM | TGI [19]: 31.9 µM | TGI [10]: 31.2 µM | TGI [11]: 32.7 µM | TGI [12]: 31.8 µM | TGI [13]: > 100 µM | TGI [14]: 27.1 µM | TGI [15]: 33.4 µM | TGI [16]: 31.1 µM | TGI [17]: 31.9 µM

C[n+]1c2ccccc2c(C(=O)NC(CCCN=C(N)N)C(=O)O)c2ccccc21 (centres undefined)
TGI [1]: > 100 µM | TGI [3]: > 100 µM | TGI [4]: > 100 µM | TGI [6]: > 100 µM | TGI [7]: > 100 µM | TGI [8]: > 100 µM | TGI [9]: > 100 µM | TGI [19]: > 100 µM | TGI [10]: > 100 µM | TGI [11]: > 100 µM | TGI [12]: > 100 µM | TGI [13]: > 100 µM | TGI [14]: > 100 µM | TGI [15]: > 100 µM | TGI [16]: > 100 µM | TGI [17]: > 100 µM

C=C1C(=O)CCC1C(=O)O (centres undefined)
TGI [1]: > 100 µM | TGI [2]: > 100 µM | TGI [3]: > 100 µM | TGI [4]: > 100 µM | TGI [6]: > 100 µM | TGI [7]: > 100 µM | TGI [8]: > 100 µM | TGI [9]: > 100 µM | TGI [19]: > 100 µM | TGI [10]: > 100 µM | TGI [11]: > 100 µM | TGI [12]: > 100 µM | TGI [18]: > 100 µM | TGI [13]: > 100 µM | TGI [14]: > 100 µM | TGI [15]: > 100 µM | TGI [16]: > 100 µM | TGI [17]: > 100 µM

CN(C)CCn1c(=O)oc2cc(C(=O)CN3CCOCC3)ccc21
TGI [1]: > 100 µM | TGI [2]: > 100 µM | TGI [3]: > 100 µM | TGI [4]: > 100 µM | TGI [6]: > 100 µM | TGI [7]: > 100 µM | TGI [8]: > 100 µM | TGI [9]: > 100 µM | TGI [19]: > 100 µM | TGI [10]: > 100 µM | TGI [11]: > 100 µM | TGI [12]: > 100 µM | TGI [18]: > 100 µM | TGI [13]: > 100 µM | TGI [14]: > 100 µM | TGI [15]: > 100 µM | TGI [16]: > 100 µM | TGI [17]: > 100 µM

COc1cccc(CCn2c(N)c(C(=O)O)c3ccc([N+](=O)[O-])cc3c2=O)c1
TGI [1]: > 100 µM | TGI [2]: > 100 µM | TGI [3]: > 100 µM | TGI [4]: > 100 µM | TGI [6]: > 100 µM | TGI [7]: > 100 µM | TGI [8]: > 100 µM | TGI [9]: > 100 µM | TGI [19]: > 100 µM | TGI [10]: 72.8 µM | TGI [11]: > 100 µM | TGI [12]: > 100 µM | TGI [18]: > 100 µM | TGI [13]: 89.7 µM | TGI [14]: > 100 µM | TGI [15]: > 100 µM | TGI [16]: 68.3 µM | TGI [17]: > 100 µM

CC(=O)/C=C(/C=N/O)c1ccccc1
TGI [1]: > 100 µM | TGI [2]: > 100 µM | TGI [3]: > 100 µM | TGI [4]: > 100 µM | TGI [6]: > 100 µM | TGI [7]: > 100 µM | TGI [8]: > 100 µM | TGI [9]: > 100 µM | TGI [19]: > 100 µM | TGI [10]: > 100 µM | TGI [11]: > 100 µM | TGI [12]: > 100 µM | TGI [18]: > 100 µM | TGI [13]: > 100 µM | TGI [14]: > 100 µM | TGI [15]: > 100 µM | TGI [16]: > 100 µM | TGI [17]: > 100 µM
